Patent US20210137938A1, “NUPR1 INHIBITION FOR TREATING CANCER” (INSTITUT NATIONAL DE SANTE ET DE LA RECHERCHE MEDICALE …, priority 2018, published 2021)
Blank lines part the entries; values can stand above or below the compound they belong to.

Assays:
02.063 cells xenograft = assay: Mice xenografted with 02.063 cells, tumor volume; assay type: in vivo, NMRI-Nude mice
Description: FIG. 2: Variation of the size the tumor of mice xenografted with 02.063 cells in the absence of any treatment (control—administration of a volume of vehicle solution equivalent to the volume of treatment administered to the treated mice) or treated with compound C of the invention (daily treatment of 30 days with 5 mg/kg of this compound). Day 0 on this figure corresponds to the day when the tumors reached 200 mm^3 (so around 1 week after the injection of 15×10^6 cells).
02.063 cells were inoculated subcutaneously (15×10^6 cells) in NMRI-Nude 8-week old mice. When tumors reached 200 mm^3, (around 1 week after the injection), a daily treatment was started for 30 days with 5 mg/kg of the compound C and the control group receiving an equivalent volume of vehicle solution (6 mice in control group, 6 mice treated with compound C).

[1] = Neurological effect on treated mice; assay type: in vivo
Description: Accordingly, Trifluoperazine seemed an interesting compound as anti-cancer agent. However, as indicated in the examples of the present application, increasingly high doses of Trifluoperazine tested in vivo led to neurological effects on immunodeficient mice implanted with human pancreatic cancer cells-derived xenografts.
A similar experiment was performed with Trifluoperazine (data not shown). […] Although relatively efficient as an anticancer agent, the neurological effect found in mice left Trifluoperazine unusable in clinics.

NUPR1 [2] = biological target: T1, NUPR1 (Homo sapiens, UniProt O60356); settings: Neira et al., 2017; cited from earlier work
T1 sequence (O60356 1-82): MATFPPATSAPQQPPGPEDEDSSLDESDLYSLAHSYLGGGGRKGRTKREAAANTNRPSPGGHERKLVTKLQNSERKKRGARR

NUPR1 [3] = biological target: T1, NUPR1; assay: Isothermal titration calorimetry of NUPR1-compound interaction; settings: ITC, 25° C, sodium phosphate 20 mM pH 7.0, 1% DMSO, single binding site model; read-out: dissociation constant (Kd)
Description: (c) ITC studies: Target engagement for the different compounds was assessed by isothermal titration calorimetry (the gold standard technique in binding affinity determination), which allowed the thermodynamic characterization of the NUPR1-compound interaction.
Titrations were performed in an AutoiTC200 (MicroCal, Malvern Instruments). A solution of NUPR1 (20 μM, in sodium phosphate 20 mM pH 7.0, 1% DMSO) in the calorimetric cell was titrated with a solution of corresponding compound (200 μM, in sodium phosphate 20 mM pH 7.0, 1% DMSO) located in the injecting syringe.
Because compounds were initially dissolved as concentrated (˜10 mM) stock solutions in pure DMSO, a residual percentage of DMSO was present in the final solutions. […] A standard protocol was employed: 19 titrant injections with 2 μL were programmed with a spacing of 150s, a stirring speed of 750 rpm, and a reference power of 10 μcal/s. From the thermogram (thermal power as a function of time), the binding isotherm (ligand-normalized heats as a function of the molar ratio) was obtained through integration of the individual heat effect associated with each ligand injection. Non-linear least squares regression analysis employing a model considering a single binding site in NUPR1 allowed the estimation of the binding parameters: dissociation constant, biding enthalpy, and stoichiometry.

[4] = tested on: 02.063, LIPC, Foie8b and HN14 cells; assay: Chemosensitivity / PrestoBlue cell viability, four primary pancreatic cancer-derived cells; assay type: cell-based, human; settings: 72 h, 0 to 100 μM, FIG. 1
Description: The biological effect in vitro of the compounds A, B and C were then studied on four well characterized primary pancreatic cancer-derived cells 02.063 and LIPC (Basal subtype), Foie8b (derived from a liver metastasis) and HN14 (Classical subtype).
(§1) The cells were screened for chemosensitivity to these compounds for 72 h with increasing concentrations of the compounds ranging from 0 to 100 μM in 96-well plates. Trifluoperazine was used as the reference compound. Each experiment was performed in triplicate and repeated at least three times. Cell viability was estimated after addition of the PrestoBlue cell viability reagent (Life Technologies) for 3 h.

[5] = tested on: MiaPaCa-2, ANOR, AOIPC, 02-136, 01-046, NH01, LIPC, HN14, 01-008 and Foie8b cells; assay: Chemosensitivity / PrestoBlue cell viability, ten primary pancreatic cancer-derived cells; assay type: cell-based; settings: 72 h, 0 to 100 μM, FIG. 4
From the text: The biological effect in vitro of the compounds C, I, F, K, L, M, N, D, G and J were studied on ten well characterized primary pancreatic cancer-derived cells: MiaPaCa-2 (Classical subtype), ANOR (Classical subtype), AOIPC (Basal subtype), 02-136 (Basal subtype), 01-046 (Classical subtype), NH01 (Classical subtype), LIPC (Basal subtype), HN14 (Classical subtype), 01-008 (Basal subtype) and Foie8b (derived from a liver metastasis).
The protocol applies was identical to the one previously indicated, i.e.:
as §1, with “plates.” for “plates. Trifluoperazine was used as the reference compound.”

[6] = tested on: HEPG2 (Hepatocellular carcinoma); assay: PrestoBlue cell viability, HEPG2; assay type: cell-based
Description: as §1
(§2) The effect of compound C was also evaluated by treating cellular lines derived from different tumors with increasing concentrations of this compound. The protocol applied is the same as the one mentioned above for cell lines 02-063, HN14, LIPC and Foie8b.

[7] = tested on: MDA-MB-231 (Breast cancer); assay: PrestoBlue cell viability, MDA-MB-231; assay type: cell-based; settings: Homo sapiens, MDA-MB-231, 72 h
Description: as §1, §2

[8] = 5 mg/kg daily for 30 days, from tumors of 200 mm^3, FIG. 2

SMILES: CN1CCN(CCCN2c3ccccc3Sc3ccc(C(F)(F)F)cc32)CC1 [Trifluoperazine, reference compound]
tumor growth (02.063 cells xenograft; higher dose, data not shown): rapidly, and almost completely, stopped
tumor volume increase compared to the control (02.063 cells xenograft; lowest dose, same period, data not shown): 50%
neurological effect ([1]; increasingly high doses, xenografted immunodeficient mice): neurological effect on treated mice such has lethargy
dissociation constant between NUPR1 and Trifluoperazine (NUPR1 [2]): low micromolar range

Kd (NUPR1 [3]): 11 µM
SMILES: CCN1CCN(CCCN2c3ccccc3Sc3ccc(C(F)(F)F)cc32)CC1 [Compound A]
cell death induced / efficiency to kill pancreatic cancer cells, compared with Trifluoperazine [4]: close to that induced by Trifluoperazine

Kd (NUPR1 [3]): 2.1 µM
IC50 ([6]; HEPG2, 72 h): 0.254 µM
IC50 ([6]; Homo sapiens, HepG2, 72 h): 0.25 µM
IC50 [7]: 14.1 µM
SMILES: CN(C)CCN1CCN(CCCN2c3ccccc3Sc3ccc(C(F)(F)F)cc32)CC1 [Compound C]
cell death induced / efficiency to kill pancreatic cancer cells, compared with Trifluoperazine [4]: most efficient compound to kill the pancreatic cancer cells
efficiency relative to Trifluoperazine (times more efficient) [4]: around 10 times
size of the tumors (02.063 cells xenograft; [8]): decreased progressively to almost disappear after 20 days of treatment
tumor growth (02.063 cells xenograft; [8]): stopped the growth almost immediately
induction of cell death in the different cancer cell lines [5]: particularly efficient (low IC50)
neurological effect ([1]; treatment of xenografted mice, including chronic treatment with 10 mg/kg): did not show any appreciable neurological effect

Kd (NUPR1 [3]): 7.1 µM
SMILES: CCN1CCN(CCCN2c3ccccc3Sc3ccc(C(F)(F)F)cc32)CC1 [Compound B]
